Values quoted from earlier work, collected in patent US20020032188A1, “Compositions and methods for treatment of anal fissure” (priority 2000, published 2002).

Conditions: topical ISDN

## O=[N+]([O-])O[C@H]1CO[C@H]2[C@@H]1OC[C@H]2O[N+](=O)[O-] [ISDN, isosorbide dinitrate]
  treatment of chronic anal fissure, result reported: effective treatment for chronic anal fissure
